Measured values as given in patent US5278142A, “Systemic delivery of polypeptides through the eye” (Orbon Corporation, priority 1992, dated 1994).
Where “and” joins values, the source holds several entries; their conditions need not be identical. Identical values can stand only once.

Legend:
[1] = Blood concentration of TRH, LHRH and glucagon after ocular instillation or i.v. injection (Example 5)
Excerpt: The concentrations of peptides in the blood were expressed in ng/ml.

[2] = tested on: blood glucose; test: Effects of absorption enhancers plus insulin on blood glucose concentrations; assay type: in vivo, New Zealand white rabbits; conditions: for % Change in Blood Glucose Concentration / Blood Glucose Concentration After / Blood Glucose Concentration Before: eye drops 1% insulin plus 1% absorption enhancer (Control: 1% insulin only)
[3] = Effects of absorption enhancers on the penetration of insulin into eyeballs; assay type: in vivo, New Zealand white rabbits; conditions: 1% insulin plus enhancer
[4] = Blood enkephalin-equivalent concentration after ocular instillation or i.v. injection; conditions: enkephalin 50 ug i.v.
[5] = Amount of enkephalin-equivalent remaining in eye tissues at the end of 12 hr experiment
[6] = Effects of absorption enhancers on insulin penetration (blood insulin concentration)
[7] = 1% enhancer with 1% insulin eye drops

**Q.** With `O=C(O)CNC(=O)C(CS)Cc1ccccc1` (racemic) [D,L-Thiorphan, D,L-thiorphan] as the compound, how does the “effect of added peptidase inhibitors on systemic absorption of TRH” value ([1]; Leu-Leu 4 mM, Bestatin 60 uM, D,L-Thiorphan 0.6 uM) read?
**A.** did not significantly enhance the systemic absorption of TRH

**Q.** What does the source list for `C[N+](C)(C)CCCCCCCCCC[N+](C)(C)C` [Decamethonium, decamethonium bromide]?
**A.** % Change in Blood Glucose Concentration [2]: 8%; Blood Glucose Concentration After [2]: 83 ± 2 mg %; Blood Glucose Concentration Before [2]: 90 ± 3 mg %

**Q.** For `CC(=O)O[C@H]1C[C@@]2(C)[C@@H](C[C@@H](O)[C@H]3[C@@]4(C)CC[C@@H](O)[C@@H](C)[C@@H]4CC[C@@]32C)/C1=C(\CCC=C(C)C)C(=O)O` [Fusidic acid, sodium fusidate], which “% Change in Blood Glucose Concentration” value [2] is on record?
**A.** 43%

**Q.** And the “Blood Glucose Concentration After” value [2]?
**A.** 51 mg % and 51 ± 2 mg %

**Q.** And the “Blood Glucose Concentration Before” value [2]?
**A.** 90 mg % and 90 ± 3 mg %

**Q.** With `C[C@H](CCC(=O)NCC(=O)O)[C@H]1CC[C@H]2[C@@H]3[C@H](O)C[C@@H]4C[C@H](O)CC[C@]4(C)[C@H]3C[C@H](O)[C@]12C` [Glycocholate, sodium glycocholate] as the compound, how does the “% Change in Blood Glucose Concentration” value [2] read?
**A.** 13%

**Q.** What about the “Blood Glucose Concentration After” value [2] of the same compound?
**A.** 94 mg % and 94 ± 4 mg %

**Q.** And the “Blood Glucose Concentration Before” value [2]?
**A.** 108 mg % and 108 ± 7 mg %

**Q.** And the “% of insulin taken up by the eyeball” value [3]?
**A.** 0.0804%

**Q.** And the “Absolute amount of insulin in the eyeball” value [3]?
**A.** 200 ng

**Q.** For `CC(C)C[C@H](NC(=O)CNC(=O)[C@H](Cc1ccc(O)cc1)NC(=O)[C@H](CO)NC(=O)[C@H](Cc1c[nH]c2ccccc12)NC(=O)[C@H](Cc1cnc[nH]1)NC(=O)[C@@H]1CCC(=O)N1)C(=O)N[C@@H](CCCNC(=N)N)C(=O)N1CCC[C@H]1C(=O)NCC(N)=O` [LHRH, luteinizing hormone-releasing hormone], which “eye-drop concentration sufficient to reach therapeutic effective blood concentration” value ([1]; rabbit, in vivo) is on record?
**A.** 0.005%

**Q.** With `NC(=O)[C@@H]1CCCN1C(=O)[C@H](Cc1cnc[nH]1)NC(=O)[C@@H]1CCC(=O)N1` [TRH, Thyrotrophin-releasing hormone] as the compound, how does the “plateau blood TRH concentration” value ([1]; female, New Zealand white, rabbit, in vivo, topical or ocular, 1 % solution (25 ul)) read?
**A.** 26 ng/mL

**Q.** What about the “eye-drop concentration giving a therapeutic blood concentration of TRH” value ([1]; rabbit, in vivo) of the same compound?
**A.** ≥ 0.0025%

**Q.** And the “time remained at the plateau” value ([1]; rabbit, in vivo)?
**A.** approximately 10 hrs

**Q.** And the time to peak ([1]; rabbit, in vivo)?
**A.** 60 min

**Q.** Which results are given for `CC(C)C[C@H](NC(=O)[C@H](Cc1ccccc1)NC(=O)CNC(=O)CNC(=O)[C@@H](N)Cc1ccc(O)cc1)C(=O)O` [enkephalin, Leucine-enkephalin (5-L-leucine)]?
**A.** Tx of blood concentration decline [4]: less than 30 min; lowest point of blood concentration ([4]; in 5 hrs): 22 ng/mL; Residual enkephalin remaining in tissues: % of instilled ([5]; Choroid, 5% enkephalin): 0.0110 ± 0.008%; Residual enkephalin remaining in tissues: % of instilled ([5]; Ciliary-Body, 0.1245% enkephalin): 0.0156 ± 0.003%; Residual enkephalin remaining in tissues: % of instilled ([5]; Ciliary-Body, 1% enkephalin): 0.0108 ± 0.005%; Residual enkephalin remaining in tissues: % of instilled ([5]; Ciliary-Body, 5% enkephalin): 0.0042 ± 0.002%; Residual enkephalin remaining in tissues: % of instilled ([5]; Cornea, 1% enkephalin): 0.0601 ± 0.015%; Residual enkephalin remaining in tissues: % of instilled ([5]; Cornea, 5% enkephalin): 0.0427 ± 0.012%; Residual enkephalin remaining in tissues: % of instilled ([5]; Iris, 0.1245% enkephalin): 0.0252 ± 0.003%; Residual enkephalin remaining in tissues: % of instilled ([5]; Iris, 1% enkephalin): 0.0117 ± 0.005%; Residual enkephalin remaining in tissues: % of instilled ([5]; Lens, 0.1245% enkephalin): 0.0834 ± 0.013%; Residual enkephalin remaining in tissues: % of instilled ([5]; Retina, 0.1245% enkephalin): 0.0118 ± 0.004%; Residual enkephalin remaining in tissues: % of instilled ([5]; Retina, 5% enkephalin): 0.0036 ± 0.002%; Residual enkephalin remaining in tissues: % of instilled ([5]; Total, 0.1245% enkephalin): 0.3019%; Residual enkephalin remaining in tissues: % of instilled ([5]; Total, 1% enkephalin): 0.1713%; Residual enkephalin remaining in tissues: % of instilled ([5]; Total, 5% enkephalin): 0.1136%

**Q.** What does the source list for “polyoxyethylene sorbitan monolaurate [Tween 20]”?
**A.** effect on insulin absorption [6, 7]: only a slight increase in insulin absorption; Insulin peak Concentration ([6]; eye drops 1% insulin plus 1% absorption enhancer (Control: 1% insulin only), 25 ul): 8.8 ± 0.9 ng/mL; effect on blood glucose [2, 7]: a minute reduction in blood glucose concentration; % Change in Blood Glucose Concentration [2]: 14%; Blood Glucose Concentration After [2]: 77 ± 9 mg %; Blood Glucose Concentration Before [2]: 90 ± 3 mg %; % of insulin taken up by the eyeball [3]: 0.0771%; Absolute amount of insulin in the eyeball [3]: 192 ng

**Q.** For polyoxyethylene-9-lauryl ether [BL-9], which “% Change in Blood Glucose Concentration” value [2] is on record?
**A.** 42%

**Q.** And the “Blood Glucose Concentration After” value [2]?
**A.** 56 mg % and 56 ± 3 mg %

**Q.** And the “Blood Glucose Concentration Before” value [2]?
**A.** 97 mg % and 97 ± 2 mg %

**Q.** And the “% of insulin taken up by the eyeball” value [3]?
**A.** 0.5221%

**Q.** What about the “Absolute amount of insulin in the eyeball” value [3] of the same compound?
**A.** 1305 ng
